Entries after “also recorded” stand apart in the source; their conditions may differ. Where two headings read alike, the source gives them in different places.
Tests used:
[1] = test system: liver cholesterol; test: Liver cholesterol accumulation in cholesterol-fed LXRα wild-type and knockout mice; type: in vivo, mouse; details: 0.2% cholesterol diet, 30 mg/kg body weight in diet, 10 days
Method: Male, A129 strain mice (LXRα+/+ and −/−) were fed Teklad 7001 powdered diet supplemented with 0.2% cholesterol 0.015% LG268 (provides 30 mg/kg body weight), vehicle, or 2% surfomer (a surfactant polymer that inhibits cholesterol absorption, Turley et al., 1991) ad libitum for 10 days. Animals were sacrificed and a liver aliquot was saponified and extracted and the cholesterol content was determined by gas chromatography using stigmastanol as an internal standard (Turley et al., 1994). Liver cholesterol accumulation was prevented by ingestion of LG268 in both LXRα knockout and wild-type mice. The two most likely mechanisms for this effect are (1) increased cholesterol output by enhanced bile acid production and secretion and/or (2) decreased cholesterol input by diminished cholesterol absorption.
Male, A129 strain mice were fed Teklad 7001 powdered diet supplemented with 0.2% cholesterol and various levels of LG268 (providing 1.4 to 30 mg/kg body weight) or vehicle ad libitum for 10 days. […] Liver cholesterol concentration was determined as by gas chromatography.
Male, A129 strain mice were fed Teklad 7001 powdered diet supplemented with 0.2% cholesterol LG268 or LG721 (to provide 3 mg/kg body weight) ad libitum for 10 days. […] Liver cholesterol concentration was determined as by gas chromatography.

[2] = test system: bile acid production; test: Bile acid pool size and fecal bile acid excretion in cholesterol-fed mice; type: in vivo, mouse; details: LXRα +/+ and −/− mice, 2% cholesterol diet, 30 mg/kg oral gavage daily, 7 days
Method: Female, mixed strain (LXRα+/+ and −/−) mice were fed Teklad 7001 2% cholesterol (w/w) diet ad libitum for 7 days. Each day mice received a single bolus dose of LG268 ([…] to provide 30 mg/kg body weight) or vehicle by oral gavage. Mice were killed and liver cholesterol was determined as described in FIG. 1. Small intestine (with luminal contents) and gall bladder were extracted together to determine bile acid pool size and composition as described by Schwartz et al., 1998. Stools were collected over 3 days from the individually housed mice, dried, weighed and ground. Fecal bile acid content was determined by an enzymatic method (Turley et al., 1996).

[3] = test system: cholesterol absorption; test: Cholesterol absorption by the fecal isotope ratio method in mice; type: in vivo, mouse
Method: Male, A129 strain mice (LXRα+/+ and −/−) were fed Teklad 7001 powdered diet supplemented with 0.2% cholesterol 0.015% LG268 (provides 30 mg/kg body weight), vehicle, or 2% surfomer ad libitum for 10 days. On day 7, mice received a gavage dose of [22,23-3H]b-sitostanol (American Radiolabeled Chemicals, St. Louis, Mo.) and [4-14C]cholesterol (Amersham) for the measurement of cholesterol absorption by the fecal isotope ratio method (Turley et al., 1994). […] In light of the extreme potency of LG268, a dose-response analysis was performed.
Male, A129 strain mice were fed Teklad 7001 powdered diet supplemented with 0.2% cholesterol and various levels of LG268 (providing 1.4 to 30 mg/kg body weight) or vehicle ad libitum for 10 days. On day 7, mice received a gavage dose of [22,23-3H]b-sitostanol (American Radiolabeled Chemicals, St. Louis, Mo.) and [4-14C]cholesterol (Amersham) for the measurement of cholesterol absorption by the fecal isotope ratio method (Turley et al., 1994). Liver cholesterol concentration was determined as by gas chromatography.
Male, A129 strain mice were fed Teklad 7001 powdered diet supplemented with 0.2% cholesterol LG268 or LG721 (to provide 3 mg/kg body weight) ad libitum for 10 days. On day 7, mice received a gavage dose of [22,23-3H]b-sitostanol (American Radiolabeled Chemicals, St. Louis, Mo.) and [4-14C]cholesterol (Amersham) for the measurement of cholesterol absorption by the fecal isotope ratio method (Turley et al., 1994). Liver cholesterol concentration was determined as by gas chromatography.

[4] = test system: total lipid absorption; test: Total lipid absorption determined gravimetrically in mice; type: in vivo, mouse
Method: Total lipid absorption was determined in the study described above (FIG. 4) to establish whether LG268 effects were specific to cholesterol or were affecting lipid absorption or intestinal integrity. Total lipid absorption was determined gravimetrically (Schwartz et al., 1998) by establishing lipid intake (amount of food consumed over 72 hours×dietary lipid content) and lipid output (fecal lipid content×quantity of stool collected over the same 72 hours) to calculate the fraction of lipid consumed that was absorbed. […] The gravimetric determination of lipid absorption shown in FIG. 5 confirmed these findings. The reduction in lipid absorption seen in these animals can be accounted for by the reduction in cholesterol uptake (cholesterol comprises ˜5% of the lipid in these diets and is extracted and measured as lipid in these analyses). Therefore, the effects of LG268 are specific for cholesterol absorption.

[5] = test system: cholesterol biosynthesis; test: Rates of sterol synthesis in vivo ([3H]water incorporation); design: species or system mouse; details: mice, 0.2% cholesterol diet, 7 days
Method: Male, A129 mice were fed Teklad 7001 diet supplemented with 0.2% cholesterol and vehicle or LG268 (at 3 or 30 mg/kg body weight) for 7 days ad libitum. Rates of sterol synthesis were measured in vivo as described (Jeske and Dietschy, 1980, Turley et al., 1981) based on the incorporation of [^3H]water into digitonin-precipitable sterols over one hour.

[6] = test system: liver cholesterol; test: Liver cholesterol in cholesterol-fed Golden Syrian hamsters; type: in vivo, Golden Syrian hamster; details: male hamsters, 0.2% cholesterol diet, 3 or 30 mg/kg body weight, 12 days
Method: (§1) Hamsters provide a better animal model for cholesterol metabolism than mice (however, mice offer the advantage that they can be genetically manipulated, for example the LXRα−/− strain). […] Male Syrian Golden hamsters were fed Teklad 7001 diet supplemented with 0.2% cholesterol and vehicle, LG268 (providing 3 or 30 mg/kg body weight) or 2% surfomer. On day 7, they received a gavage dose of [22,23-3H]b-sitostanol (American Radiolabeled Chemicals, St. Louis, Mo.) and [4-14C]cholesterol (Amersham) for the measurement of cholesterol absorption by the fecal isotope ratio method (Turley et al., 1994). Stools were collected from the individually housed hamsters over the next 72 hours. On day 12 the animals were sacrificed and liver was removed for cholesterol determination by gas chromatography (Turley et al., 1994). […] Therefore the effects of LG268 on cholesterol homeostasis are not limited to mice, but observed in other mammalian species as well.

[7] = test system: cholesterol absorption; test: Cholesterol absorption by the fecal isotope ratio method in hamsters; type: in vivo, Golden Syrian hamster; details: male hamsters, 0.2% cholesterol diet, 3 or 30 mg/kg body weight
Method: as §1

[8] = test system: ACAT-1 mRNA; test: Northern analysis of duodenal intestine samples, ACAT-1; type: in vivo, mouse; details: duodenum of treated mice, 10 days
Description: (§2) It is known that exogenous cholesterol is taken up in the distal duodenum (and perhaps proximal jejunum) by the intestinal enterocyte, is rapidly esterified (by ACAT) and packaged into chylomicrons for transport into the lymphatic system (reviewed by Homan and Krause, 1997). Recently, caveolin has also been proposed to play a role in cholesterol trafficking in the intestine (Field et al., 1998). Disruption of any of these processes could result in diminished cholesterol absorption capacity. As LG268 is an agonist of the nuclear hormone receptor RXR, it is likely that the primary targets of this drug would be transcriptionally regulated and show a change in the steady state level of mRNA for critical target genes. Northern analyses were performed on duodenal intestine samples obtained in the experiment described in FIG. 4. Results were quantitated using a phosphoimager (Molecular Dynamics), standardized against b-actin controls, and mathematically adjusted to yield 1 unit for the vehicle-treated control group.

[9] = test system: ACAT-2 mRNA; test: Northern analysis of duodenal intestine samples, ACAT-2; type: in vivo, mouse; details: duodenum of treated mice, 10 days
Description: as §2

[10] = test system: caveolin mRNA; test: Northern analysis of duodenal intestine samples, caveolin; type: in vivo, mouse; details: duodenum of treated mice, 10 days
Description: as §2

[11] = test system: ATP-binding cassette protein-1 (ABC-1); test: Northern analysis of intestinal ABC-1 expression; type: in vivo; details: mouse small intestine, oral 30 mg/kg body weight, as little as 6 hours
Method: The ATP-binding cassette protein-1 is a newly described membrane protein implicated in reverse cholesterol transport, in other words the efflux of cholesterol from peripheral tissues to the liver (Young and Fielding, 1999; Tall, 1998).
Male A129 strain mice were fed Teklad 7001 powdered diet supplemented with 0.2% cholesterol and 0.015% LG268, equimolar LG721 (see example 12) or vehicle at 7 pm (beginning of dark cycle). Animals were sacrificed at 1 am (6 hour time point) or 7 am (12 hr), the intestine was removed and rinsed with ice-cold phosphate buffered saline, then subdivided into 5 segments of equal length (˜8 cm each, FIG. 10A) or 3 segments (the proximal segment representing the duodenumis depicted in FIG. 10B). Intestinal mucosa was obtained from each segment and poly (A+) RNA isolated for northern analyses. Results were quantified using a phosphorimager, standardized against b-actin controls, and mathematically adjusted to yield 1 unit for the vehicle-treated control group.

[12] = test system: RXR; details: cited from earlier work

SMILES: Cc1cc2c(cc1C1(c3ccc(C(=O)O)cn3)CC1)C(C)(C)CCC2(C)C [LG268]
- liver cholesterol accumulation [1]: prevented
- liver cholesterol accumulation prevented via bile acid production (bile acid pool size and excretion) [2]: did not prevent the liver accumulation by increasing bile acid production
- cholesterol absorption ([3]; LXRα +/+ and −/− mice, 0.2% cholesterol diet, 30 mg/kg body weight, 10 days, 30 mg/kg): completely inhibited; also recorded: total block in cholesterol absorption
- inhibition of cholesterol absorption compared with 2% surfomer ([3]; mice, LG268 0.015% of diet, dose 130-fold lower than surfomer): more effective than surfomer
- lowest effective dose preventing liver cholesterol accumulation by inhibiting cholesterol absorption ([3]; wild-type mice, 0.2% cholesterol diet, doses 1.4 to 30 mg/kg, 10 days): 1.4 mg/kg body weight
- stool output ([4]; wild-type mice receiving LG268 in diet): normal
- general lipid absorption ([4]; wild-type mice, 0.2% cholesterol diet, LG268 in diet, 10 days): not experiencing general lipid malabsorption or steattorhea; also recorded: unaffected
- cholesterol biosynthesis ([5]; 3 or 30 mg/kg body weight): increased cholesterol biosynthesis
- sterol synthesis in spleen, kidney and carcass ([5]; 3 or 30 mg/kg, dose-dependent): Increased synthesis
- liver cholesterol [6]: effective in hamsters in reducing liver cholesterol
- cholesterol absorption [7]: inhibiting cholesterol absorption
- ACAT-1 mRNA level [8]: No apparent change
- ACAT-2 mRNA level [9]: No apparent change
- caveolin mRNA level [10]: No apparent change
- ABC-1 expression [11]: greatly increased
- RXR binding and activation [12]: binds and activates RXR
- RXR binding and activation ([12]; listed as LG100268): binds and activates all RXR subtypes
- binding to other related nuclear receptors ([12]; selectivity): fails to exhibit binding
